# Read-outs that look alike come from different tables or passages of the source.
# Assays:
# M. abscessus = assay: MIC by broth dilution method (Middlebrook 7H9); format: cell-based, Mycobacteroides abscessus; settings: for MIC50 / MIC90: clinical M. abscessus strains of Table 1; for MIC50: read-out: MIC50; for MIC90: read-out: MIC90
# [1] = cited from earlier work
# M. abscessus ATCC 19977 = format: cell-based, Mycobacteroides abscessus; settings: drug alone at its individual MIC (T405 2 µg/mL, imipenem 8 µg/mL)
# in vivo = assay: in vivo; set-up: species or system BALB/c mice; settings: female, BALB/c, mouse, 25 mg/kg, T405 concentration in blood
# Procedure: All procedures involving mice were approved by the Animal Care and Use Committee of Johns Hopkins University. […] Blood was sampled from three mice per group per time point by mandibular vein puncture or cardiac puncture at the following time points: 5, 15, 30, 60, 120, and 240 min post-dose. Plasma was separated in heparin-containing tubes and frozen. […] Concentration–time data were analyzed by standard non-compartmental and compartmental techniques using WinNonlin (version 7.0; Pharsight, Mountain View, CA). A one-compartmental model was used to perform simulations to predict the plasma concentration–time profile after subcutaneous doses of 150, 300, and 450 mg/kg, alone and in combination with probenecid. A plasma free drug fraction of 2% of the total drug concentration was included in the simulations.
# [2] = Mycobacteroides abscessus, ATCC19977, reference strain ATCC 19977, read-out: MIC
# [3] = Mycobacteroides abscessus, clinical isolate 1N, read-out: MIC
# [4] = Mycobacteroides abscessus, clinical isolate 2N, read-out: MIC
# [5] = Mycobacteroides abscessus, clinical isolate 3N, read-out: MIC
# [6] = Mycobacteroides abscessus, clinical isolate 4N, read-out: MIC
# [7] = Mycobacteroides abscessus, clinical isolate 5N, read-out: MIC
# [8] = Mycobacteroides abscessus, clinical isolate 8N, read-out: MIC
# [9] = Mycobacteroides abscessus, clinical isolate 11N, read-out: MIC
# [10] = Mycobacteroides abscessus, clinical isolate 13N, read-out: MIC
# [11] = Mycobacteroides abscessus, clinical isolate 14N, read-out: MIC
# [12] = Mycobacteroides abscessus, clinical isolate 202, read-out: MIC
# [13] = Mycobacteroides abscessus, clinical isolate 203, read-out: MIC
# [14] = Mycobacteroides abscessus, clinical isolate 204, read-out: MIC
# [15] = Mycobacteroides abscessus, clinical isolate 214, read-out: MIC
# [16] = Mycobacteroides abscessus, clinical isolate 215, read-out: MIC
# [17] = Mycobacteroides abscessus, clinical isolate JH1801, read-out: MIC
# [18] = Mycobacteroides abscessus, clinical isolate JH1802, read-out: MIC
# [19] = Mycobacteroides abscessus, clinical isolate JHH2, read-out: MIC
# [20] = Mycobacteroides abscessus, clinical isolate JHH4, read-out: MIC
# [21] = Mycobacteroides abscessus, clinical isolate JHH9, read-out: MIC
# [22] = Mycobacteroides abscessus, clinical isolate JHHKB, read-out: MIC
SMILES,MIC (M. abscessus; [2]),MIC (M. abscessus; [3]),MIC (M. abscessus; [4]),MIC (M. abscessus; [5]),MIC (M. abscessus; [6]),MIC (M. abscessus; [7]),MIC (M. abscessus; [8]),MIC (M. abscessus; [9]),MIC (M. abscessus; [10]),MIC (M. abscessus; [11]),MIC (M. abscessus; [12]),MIC (M. abscessus; [13]),MIC (M. abscessus; [14]),MIC (M. abscessus; [15]),MIC (M. abscessus; [16]),MIC (M. abscessus; [17]),MIC (M. abscessus; [18]),MIC (M. abscessus; [19]),MIC (M. abscessus; [20]),MIC (M. abscessus; [21]),other results
C[C@@H](O)[C@H]1C(=O)N2C(C(=O)O)=C([C@H]3CCCO3)S[C@H]12 [Faropenem],512 µg/mL,256 µg/mL,256 µg/mL,256 µg/mL,256 µg/mL,512 µg/mL,512 µg/mL,512 µg/mL,64 µg/mL,512 µg/mL,512 µg/mL,128 µg/mL,512 µg/mL,128 µg/mL,512 µg/mL,512 µg/mL,256 µg/mL,512 µg/mL,512 µg/mL,512 µg/mL,MIC (M. abscessus; [22]): 512 µg/mL; MIC50 (M. abscessus; Mycobacteroides abscessus): 512 µg/mL; MIC90 (M. abscessus; Mycobacteroides abscessus): 512 µg/mL; half-life in mice [1]: 11.4 min
C[C@@H](O)[C@H]1C(=O)N2C(C(=O)O)=C(SCCN=CN)C[C@H]12 [Imipenem],8 µg/mL,8 µg/mL,8 µg/mL,8 µg/mL,16 µg/mL,16 µg/mL,32 µg/mL,32 µg/mL,8 µg/mL,32 µg/mL,16 µg/mL,32 µg/mL,32 µg/mL,8 µg/mL,16 µg/mL,16 µg/mL,16 µg/mL,32 µg/mL,16 µg/mL,16 µg/mL,Resistance frequency (M. abscessus ATCC 19977): 1.9 × 10^−7; MIC (M. abscessus; [22]): 256 µg/mL; MIC50 (M. abscessus; Mycobacteroides abscessus): 16 µg/mL; MIC90 (M. abscessus; Mycobacteroides abscessus): 32 µg/mL
C[C@@H](O)[C@@H]1C(=O)N2C(C(=O)O)=C(SC3CN(C4=NCCS4)C3)S[C@@H]12 [T405],–,–,–,–,–,–,–,–,–,–,–,–,–,–,–,–,–,–,–,–,concentration at 5 min (in vivo): 169 ng/mL; concentration at 0.25 h (in vivo): 157 ng/mL; concentration at 0.5 h (in vivo): 143 ng/mL; concentration at 1 h (in vivo): 65 ng/mL; concentration at 2 h (in vivo): 25.1 ng/mL
NC(=O)[C@@H]1CC[C@@H]2CN1C(=O)N2OS(=O)(=O)O [avibactam],–,–,–,–,–,–,–,–,–,–,–,–,–,–,–,–,–,–,–,–,MIC (M. abscessus; reference strain ATCC 19977): 256 µg/mL

# — paper PMC7721803, “Development of a penem antibiotic against Mycobacteroides abscessus” (Communications Biology, 2020)
